Results published in ChEMBL document CHEMBL5375968, “Peptide TK-HR from the Skin of Chinese Folk Medicine Frog Hoplobatrachus Rugulosus Accelerates Wound Healing via the Activation of the Neurokinin-1 Receptor” (J Med Chem, 2023).
The source made the active and inactive calls. The calls are words filed in the database; no cut-off is given here.

Tests used:
RAW264.7 [1] = test: Upregulation of phosphorylated p38 level in mouse RAW264.7 cells at 2.5 to 20 uM incubated for 4 hrs by Western blot analysis; format: functional, cell-based; conditions: dose 2.5-20 µM
Mus musculus [2] = species on record: Mus musculus; test: Induction of wound healing in BALB/c mouse model of full-thickness wounds assessed as increase in TGF-1beta production in wound skin at 50 to 200 ug/ml, TOP bid measured after 8 days by ELISA; format: functional; conditions: dose 50-200 µg/ml, time 8.0 day
RAW264.7 [3] = test: Upregulation of phosphorylated JNK level in Aprepitant-treated mouse RAW264.7 cells at 2.5 to 20 uM incubated for 4 hrs by Western blot analysis; format: functional, cell-based; conditions: dose 2.5-20 µM
RAW264.7 [4] = test: Induction of MCP-1 expression in mouse RAW264.7 cells incubated for 24 hrs by ELISA; format: functional, cell-based; conditions: dose 2.5-20 µM
[5] = Induction of wound healing in BALB/c mouse model of full-thickness wounds at 50 ug/ml, TOP bid measured after 2 days (reference value: 30.4 %); format: functional; conditions: dose 50 µg/ml, time 2 day
[6] = Induction of wound healing in BALB/c mouse model of full-thickness wounds at 200 ug/ml, TOP bid measured after 2 days (reference value: 30.4 %); format: functional; conditions: dose 200 µg/ml, time 2 day
RAW264.7 [7] = test: Upregulation of phosphorylated Smad3 level in mouse RAW264.7 cells at 2.5 to 20 uM incubated for 4 hrs by Western blot analysis; format: functional, cell-based; conditions: dose 2.5-20 µM
Mus musculus [8] = species on record: Mus musculus; test: Induction of wound healing in BALB/c mouse model of full-thickness wounds assessed as increase in endothelial cells in wound skin at 50 ug/ml, TOP bid measured after 4 days by IHC analysis; format: functional, cell-based; conditions: dose 50.0 µg/ml, time 4.0 day
Mus musculus [9] = species on record: Mus musculus; test: Induction of wound healing in BALB/c mouse model of full-thickness wounds assessed as increase in granulation tissue formation at 50 ug/ml, TOP bid measured after 8 days by H and E staining based analysis; format: functional; conditions: dose 50.0 µg/ml, time 8.0 day
RAW264.7 [10] = test: (§1) Induction of phagocytosis in mouse RAW264.7 cells cultured with Escherichia coli ATCC 25922 assessed as number of surviving engulfed bacteria at 5 uM incubated for 24 hrs followed by bacterial exposure for 1 hr and further treated with gentamycin for 2 hrs by plate counting method (reference value: 37); format: functional
Mast cell = test: Inhibition of degranulation in mast cells (unknown origin) assessed as beta- hexosaminidase release upto 40 uM; format: functional, cell-based
HaCaT [11] = test: Induction of cell migration in Mitomycin C-treated human HaCaT cells assessed as healing rate at 20 uM measured after 24 hrs by scratch healing assay (reference value: 21.3 %); format: functional
[12] = Induction of TGF-beta1 level in Aprepitant-treated mouse RAW264.7 cells at 20 uM incubated for 24 hrs by ELISA; format: functional
Mus musculus [13] = species on record: Mus musculus; test: Induction of wound healing in BALB/c mouse model of full-thickness wounds assessed as increase in ratio of phosphorylated Smad3 level to total Smad3 level in wound skin at 50 to 200 ug/ml, TOP bid measured after 8 days by Western blot analysis; format: functional; conditions: dose 50-200 µg/ml, time 8.0 day
RAW264.7 [14] = test: as §1, with “at 20” for “at 5”; format: functional
RAW264.7 [15] = test: Upregulation of phosphorylated p38 level in Aprepitant-treated mouse RAW264.7 cells at 2.5 to 20 uM incubated for 4 hrs by Western blot analysis; format: functional, cell-based; conditions: dose 2.5-20 µM
[16] = Induction of wound healing in BALB/c mouse model of full-thickness wounds at 200 ug/ml, TOP bid measured after 8 days (reference value: 81.0 %); format: functional; conditions: dose 200 µg/ml, time 8 day
HUVEC [17] = test: Induction of cell migration in HUVEC cells assessed as healing rate at 20 uM measured after 48 hrs by scratch healing assay (reference value: 57.2 %); format: functional, Homo sapiens
RAW264.7 [18] = test: Induction of phagocytosis in mouse RAW264.7 cells assessed as increase in neutral red dye uptake by measuring optical density at 540 nm at 2.5 uM incubated for 24 hrs followed by dye addition measured after 4 hrs by absorbance based assay (reference value: 0.073); format: functional; conditions: time 28 hrs
HUVEC [19] = test: Induction of cell migration in Mitomycin C-treated HUVEC cells assessed as healing rate at 20 uM measured after 24 hrs by scratch healing assay (reference value: 30.2 %); format: functional, Homo sapiens
Escherichia coli = test: Antimicrobial activity against Escherichia coli ATCC 25922 assessed as microbial growth inhibition at 100 uM; format: functional, organism-based
[20] = Induction of wound healing in BALB/c mouse model of full-thickness wounds at 100 ug/ml, TOP bid measured after 4 days (reference value: 48.6 %); format: functional; conditions: dose 100 µg/ml, time 4 day
Neutrophil [21] = test: Induction of ROS production in BALB/c mouse neutrophils at 10 to 20 uM incubated for 2 hrs by DCFH-DA staining based analysis; format: functional, cell-based; conditions: dose 10-20 µM
Staphylococcus aureus = test: Antimicrobial activity against Staphylococcus aureus ATCC 25923 assessed as microbial growth inhibition at 100 uM; format: functional, organism-based
[22] = Toxicity in BALB/c mouse model of full-thickness wounds assessed as inflammatory foci in spleen at 200 ug/ml, TOP bid measured upto 8 days by H and E staining based analysis; format: tissue-based; conditions: in vivo, topical_or_ocular, 192 h, dose 200 µg/ml, time < 8 day
[23] = Induction of wound healing in BALB/c mouse model of full-thickness wounds at 100 ug/ml, TOP bid measured after 6 days (reference value: 71.7 %); format: functional; conditions: dose 100 µg/ml, time 6 day
Mus musculus [24] = species on record: Mus musculus; test: Induction of wound healing in BALB/c mouse model of full-thickness wounds assessed as […] in IL-10 level in wound skin at 50 ug/ml, TOP bid measured after 2 days by ELISA; format: functional; conditions: dose 50.0 µg/ml, time 2.0 day
Neutrophil [25] = test: Induction of phagocytosis in BALB/c mouse neutrophils cultured with CFSE-labeled Staphylococcus aureus ATCC 25923 at 10 uM pretreated for 1 hr followed by bacterial exposure measured after 1.5 hrs by fluorescence microscopy; format: functional, cell-based; conditions: time 2.5 hrs
HUVEC [26] = test: Induction of cell migration in HUVEC cells assessed as formation of filopodia extensions at 20 uM measured after 24 hrs by immunofluorescence microscopy; format: functional, cell-based; conditions: Homo sapiens
RAW264.7 [27] = test: Induction of phagocytosis in mouse RAW264.7 cells cultured with Escherichia coli ATCC 25922 assessed as number of engulfed bacteria at 10 uM incubated for 24 hrs followed by bacterial exposure measured after 1 hr by plate counting method (reference value: 225); format: functional; conditions: time 25 hrs
RAW264.7 [28] = test: Effect on total ERK level in mouse RAW264.7 cells at 2.5 to 20 uM incubated for 4 hrs by Western blot analysis; format: functional, cell-based; conditions: dose 2.5-20 µM
[29] = Induction of wound healing in BALB/c mouse model of full-thickness wounds assessed as increase in collagen deposition in wound sites at 50 to 200 ug/ml, TOP bid measured after 8 days by Masson's Trichome staining based analysis relative to control; format: functional; conditions: dose 50-200 µg/ml, time 8 day, at 50 to 200 µg/mL
HaCaT [30] = test: Induction of cell migration in human HaCaT cells assessed as formation of filopodia extensions at 20 uM measured after 24 hrs by immunofluorescence microscopy; format: functional, cell-based

H-KPNPDRFYGLM-NH2
Activity (RAW264.7 [1]): Active
Activity (Mus musculus [2]): inactive
Activity (RAW264.7 [3]): inactive
Activity (RAW264.7 [4]): Dose-Dependent Effect
Activity [5]: 38.9%
Activity [6]: 52.8%
Activity (RAW264.7 [7]): Active
Activity (Mus musculus [8]): Active
Activity (Mus musculus [9]): Active
Activity (RAW264.7 [10]): 29
inhibition (Mast cell): Active
Activity (HaCaT [11]): 40.2%
Activity [12]: 46.7 pg/mL
Activity (Mus musculus [13]): inactive
Activity (RAW264.7 [14]): 20
Activity (RAW264.7 [15]): inactive
Activity [16]: 100%
Activity (HUVEC [17]): 83.4%
OD (RAW264.7 [18]): 0.097
Activity (HUVEC [19]): 43.7%
Activity (Escherichia coli): inactive
Activity [20]: 70.9%
Activity (Neutrophil [21]): Active
Activity (Staphylococcus aureus): inactive
Activity [22]: Non-Toxic
Activity [23]: 93.9%
Activity (Mus musculus [24]): Active
Activity (Neutrophil [25]): Active
Activity (HUVEC [26]): Active
Activity (RAW264.7 [27]): 338
Activity (RAW264.7 [28]): inactive
Activity [29]: 197%
Activity (HaCaT [30]): Active
